Drawing on the NIST ThermoML archive (doi:10.1016/j.fluid.2011.04.001), this text covers mass density and refractive index for 5 compounds.

± gives the expanded uncertainty stated by the source.

Usually mass density stands for mass per unit of volume. Usually refractive index stands for a measure of how strongly the sample bends light.

For data set [1] the following is noted: 298.15 K; 101.33 kPa; Liquid; Vibrating tube method.
Data set [2] in a line: refractive index (Na D-line) (dimensionless). Particulars: 298.15 K; 101.33 kPa; Liquid; Standard Abbe refractometry.
Data set [3] is described as follows: xn = mol fraction of the nth substance listed. Particulars: 298.15 K, 101 kPa, Liquid, Vibrating tube method.

With `CCOS(=O)(=O)[O-].CCn1cc[n+](C)c1` [1-ethyl-3-methylimidazolium ethyl sulfate], the mass density in data set [1] is given as 1237.23 ± 0.43 kg/m3. The refractive index in data set [2] is recorded as 1.50591 ± 0.0004.
For `CCOS(=O)(=O)[O-].CCn1cc[n+](C)c1` [1-ethyl-3-methylimidazolium ethyl sulfate] + CCCCCC, the mass density in data set [3] (x2 = 0.015) was 1234.45 ± 1.5 kg/m3.
On to `CCOS(=O)(=O)[O-].CCn1cc[n+](C)c1` [1-ethyl-3-methylimidazolium ethyl sulfate] + Cc1ccc(C)cc1, for which, in data set [3] (x2 = 0.123), the mass density came out at 1210.97 ± 1.5 kg/m3.
For `CCOS(=O)(=O)[O-].CCn1cc[n+](C)c1` [1-ethyl-3-methylimidazolium ethyl sulfate] + Cc1cccc(C)c1, in data set [3] (x2 = 0.119), the mass density is recorded as 1212.69 ± 1.5 kg/m3.
Consider `CCOS(=O)(=O)[O-].CCn1cc[n+](C)c1` [1-ethyl-3-methylimidazolium ethyl sulfate] + Cc1ccccc1C, for which the mass density in data set [3] (x2 = 0.142) is recorded as 1207.74 ± 1.5 kg/m3.
